The assay has as its target T1, Bcl-2 protein (Homo sapiens, UniProt P10415, DELINS35-91DVEENRTEAPEGTESE, form not given).
T1 construct: fused on or other part: Bcl-xL (Q07817) residues 29-44 stand in place of Bcl-2's own unstructured loop 35-91; The C-terminal membrane anchor (208-239) is absent
The experiment in a line: Bcl-2 fluorescence polarization assay (FPA) binding. The following applies: 10 nM Bcl-2 protein, 1 nM fluorescein-labeled BAX peptide, room temperature, read-out: Bcl-2 FPA 11pt Ki. How it is done: Assays for the inhibition of Bcl-2 were performed in 96-well microtiter plates. Compounds of the instant invention were diluted in DMSO to concentrations between […] and 10 pM and introduced into each well of the plate. A mixture totaling 125 µL per well of assay buffer (20 mM phosphate buffer (pH 7.4), 1 mM EDTA, 0.05% PF-68), 10 nM of Bcl-2 protein (prepared according to the procedure described in PNAS 2001, 98, 3012-3017), 1 nM fluorescein-labeled BAX peptide (prepared in-house), and the DMSO solution of the compound of the instant invention was shaken for 2 minutes and placed in a LJL Analyst (LJL Bio Systems, CA. Polarization was measured at room temperature using a continuous Fluorescein lamp (excitation 485 nm, emission 530 nm). Ki values were calculated using Microsoft Excel.
Background: Fluorescence polarisation rises when a labelled molecule tumbles more slowly, as on binding a larger partner.

Structures are written as SMILES. pKi: −log10 of the molar value.

T1 sequence (P10415 with tags, fused parts or gaps with the stated changes): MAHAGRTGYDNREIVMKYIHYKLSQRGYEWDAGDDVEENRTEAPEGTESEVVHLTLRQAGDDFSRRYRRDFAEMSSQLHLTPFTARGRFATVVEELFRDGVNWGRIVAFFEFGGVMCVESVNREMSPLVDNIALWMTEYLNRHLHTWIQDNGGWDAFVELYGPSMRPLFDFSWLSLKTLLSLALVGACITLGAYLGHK

Usually pKi stands for the negative decadic logarithm of the Ki, by convention in mol/L. In the case of `CC1(C)CCC(NCC2C3CC4CC(C3)CC2C4)C(CN2CCN(c3ccc(C(=O)NS(=O)(=O)c4ccc(NCC5CCOCC5)c([N+](=O)[O-])c4)cc3)CC2)C1` (stereo not shown) [Example 20, 4-{4-[(2-{[adamantan-2-ylmethyl]amino}-5,5-dimethylcyclohexyl)methyl]piperazin-1-yl}-N-({3-nitro-4-[(tetrahydro-2H-pyran-4-ylmethyl)amino]phenyl}sulfonyl)benzamide], the pKi is less than 4.28.

For `CC12CC3CC(C)(C1)CC(N1CCN(c4ccc(C(=O)NS(=O)(=O)c5ccc(NCC6CCCCC6)c([N+](=O)[O-])c5)cc4)CC1)(C3)C2` [Example 55, N-({4-[(cyclohexylmethyl)amino]-3-nitrophenyl}sulfonyl)-4-{4-[3,5-dimethyladamantan-1-yl]piperazin-1-yl}benzamide], the negative logarithm of the Ki (pKi) is 6.45.

Take `O=C(NS(=O)(=O)c1ccc(NC2CCOCC2)c([N+](=O)[O-])c1)c1ccc(N2CCC(NC(=O)C34CC5CC(CC(C5)C3)C4)CC2)cc1` [Example 83, N-{1-[4-({[3-nitro-4-(tetrahydro-2H-pyran-4-ylamino)phenyl]sulfonyl}carbamoyl)phenyl]piperidin-4-yl}adamantane-1-carboxamide]: the pKi was less than 5.20. Under `O=C(NS(=O)(=O)c1ccc(NCC2CCOCC2)c([N+](=O)[O-])c1)c1ccc(N2CCN(Cc3ccccc3-c3ccc(C(=O)Nc4ccc5oc(-c6ccccc6)nc5c4)o3)CC2)cc1` [Example 64, 5-{2-[(4-{4-[({3-nitro-4-[(tetrahydro-2H-pyran-4-ylmethyl)amino]phenyl}sulfonyl)carbamoyl]phenyl}piperazin-1-yl)methyl]phenyl}-N-(2-phenyl-1,3-benzoxazol-5-yl)-2-furamide] stands 5.83; under `CC1(C)C2C=C(c3ccccc3CN3CCN(c4ccc(C(=O)NS(=O)(=O)c5ccc(NCC6CCOCC6)c([N+](=O)[O-])c5)cc4)CC3)C1(C(=O)NCc1ccccc1)CC2` (stereo not shown) [Example 30, N-benzyl-7,7-dimethyl-2-{2-[(4-{4-[({3-nitro-4-[(tetrahydro-2H-pyran-4-ylmethyl)amino]phenyl}sulfonyl)carbamoyl]phenyl}piperazin-1-yl)methyl]phenyl}bicyclo[2.2.1]hept-2-ene-1-carboxamide], 6.53; under `C[C@@H]1[C@@H](Nc2ccc(C=C3CCN(c4ccc(C(=O)NS(=O)(=O)c5ccc(NCC6CCOCC6)c([N+](=O)[O-])c5)cc4)CC3)cc2)C[C@H]2C[C@@H]1C2(C)C` [Example 72, N-({3-nitro-4-[(tetrahydro-2H-pyran-4-ylmethyl)amino]phenyl}sulfonyl)-4-[4-(4-{[(1S,2S,3S,5R)-2,6,6-trimethylbicyclo[3.1.1]hept-3-yl]amino}benzylidene)piperidin-1-yl]benzamide], 6.54. As to `C[C@H]1[C@H]2C[C@H](CC2Nc2ccccc2CN2CCN(c3ccc(C(=O)NS(=O)(=O)c4ccc(NCC5CCOCC5)c([N+](=O)[O-])c4)cc3)CC2)C1(C)C` (stereo partly drawn) [Example 17, N-({3-nitro-4-[(tetrahydro-2H-pyran-4-ylmethyl)amino]phenyl}sulfonyl)-4-[4-(2-{[(1R,4R,6S)-5,5,6-trimethylbicyclo[2.2.1]hept-2-yl]amino}benzyl)piperazin-1-yl]benzamide], the pKi was 7.52. For `CC1(C)C2C=C(c3ccccc3CN3CCN(c4ccc(C(=O)NS(=O)(=O)c5ccc(NCC6CCOCC6)c([N+](=O)[O-])c5)cc4)CC3)C1(C(=O)NCC13CC4CC(CC(C4)C1)C3)CC2` (stereo not shown) [Example 37, N-(adamantan-1-ylmethyl)-7,7-dimethyl-2-{2-[(4-{4-[({3-nitro-4-[(tetrahydro-2H-pyran-4-ylmethyl)amino]phenyl}sulfonyl)carbamoyl]phenyl}piperazin-1-yl)methyl]phenyl}bicyclo[2.2.1]hept-2-ene-1-carboxamide] the value was 6.78; for `O=C(CCN(Cc1ccccc1)C(=O)CC12CC3CC(CC(C3)C1)C2)NS(=O)(=O)c1ccc(NCC2CCCCC2)c([N+](=O)[O-])c1` [Example 52, N^3-[adamantan-1-ylacetyl]-N^3-benzyl-N-({4-[(cyclohexylmethyl)amino]-3-nitrophenyl}sulfonyl)-beta-alaninamide], 5.86; for `O=C(NS(=O)(=O)c1ccc(NC2CCOCC2)c([N+](=O)[O-])c1)c1ccc(N2CCN(C(=O)C34CC5CC(CC(C5)C3)C4)CC2)cc1` [Example 41, 4-{4-[adamantan-1-ylcarbonyl]piperazin-1-yl}-N-{[3-nitro-4-(tetrahydro-2H-pyran-4-ylamino)phenyl]sulfonyl}benzamide], 5.29. Under `COc1ccc(-c2ccc3cc(C(=O)NS(=O)(=O)c4ccc(NCC5CCCCC5)c([N+](=O)[O-])c4)ccc3c2)cc1C12CC3CC(CC(C3)C1)C2` [Example 80, 6-{3-[adamantan-1-yl]-4-methoxyphenyl}-N-({4-[(cyclohexylmethyl)amino]-3-nitrophenyl}sulfonyl)-2-naphthamide] stands 5.89; under `CC1(C)O[C@@H]2[C@@H](CO[C@@]3(COS(=O)(=O)NC(=O)c4ccc(N5CCN(Cc6ccccc6-c6ccc(Cl)cc6)CC5)cc4)OC(C)(C)O[C@@H]23)O1` [Example 56, [(3 aS,5aR,8aR,8bS)-2,2,7,7-tetramethyltetrahydro-3aH-bis[1,3]dioxolo[4,5-b:4′,5′-d]pyran-3a-yl]methyl (4-{4-[(4′-chlorobiphenyl-2-yl)methyl]piperazin-1-yl}benzoyl)sulfamate], more than 7.70; under `O=C(NS(=O)(=O)c1ccc(NCC2CCOCC2)c([N+](=O)[O-])c1)c1ccc(N2CCC(=Cc3ccccc3-c3ccc(-c4nc(-c5ccccc5)cs4)s3)CC2)cc1` [Example 75, N-({3-nitro-4-[(tetrahydro-2H-pyran-4-ylmethyl)amino]phenyl}sulfonyl)-4-(4-{2-[5-(4-phenyl-1,3-thiazol-2-yl)-2-thienyl]benzylidene}piperidin-1-yl)benzamide], 6.60. `CN1c2ccccc2-c2ccccc2C1c1ccccc1CN1CCN(c2ccc(C(=O)NS(=O)(=O)c3ccc(NCC4CCOCC4)c([N+](=O)[O-])c3)cc2)CC1` (stereo not shown) [Example 66, 4-{4-[2-(5-methyl-5,6-dihydrophenanthridin-6-yl)benzyl]piperazin-1-yl}-N-({3-nitro-4-[(tetrahydro-2H-pyran-4-ylmethyl)amino]phenyl}sulfonyl)benzamide]: the negative logarithm of the Ki (pKi) was 8.10. For `CN1[C@@H]2CC[C@H]1CC(Nc1ccccc1CN1CCN(c3ccc(C(=O)NS(=O)(=O)c4ccc(NCC5CCOCC5)c([N+](=O)[O-])c4)cc3)CC1)C2` (stereo partly drawn) [Example 31, 4-[4-(2-{[(1R,5S)-8-methyl-8-azabicyclo[3.2.1]oct-3-yl]amino}benzyl)piperazin-1-yl]-N-({3-nitro-4-[(tetrahydro-2H-pyran-4-ylmethyl)amino]phenyl}sulfonyl)benzamide] the value was 7.50; for `C[C@@H]1[C@@H](N(CCCc2ccccc2)c2ccc(-c3ccc(C(=O)NS(=O)(=O)c4ccc(NCC5CCCCC5)c([N+](=O)[O-])c4)cc3)cc2)C[C@H]2C[C@@H]1C2(C)C` [Example 7, N-({4-[(cyclohexylmethyl)amino]-3-nitrophenyl}sulfonyl)-4′-{(3-phenylpropyl)[(1S,2S,3S,5R)-2,6,6-trimethylbicyclo[3.1.1]hept-3-yl]amino}biphenyl-4-carboxamide], 5.90.
